Reference: patent publication US6737383B1, “Herbicidal oxadiazolidines” (priority 1999, dated 2004)

Key:
bedstraw = assay: Test B pre/postemergence bedstraw; assay type: in vivo, Galium aparine; conditions: Postemergence
In short: (§1)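 Herbicidal effect was estimated by eye on a ten-point control scale after plants spent twelve to sixteen days in a greenhouse following soil or foliar treatment. Foliar sprays targeted plants at one to four leaves; all doses were formulated in a non-phytotoxic solvent with surfactant.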

blackgrass = assay: Test B pre/postemergence blackgrass; assay type: in vivo, Alopecurus myosuroides
In short: as §1

surinam grass = assay: Test B pre/postemergence surinam grass; assay type: in vivo, Brachiaria decumbens
In short: as §1

cocklebur = assay: Test B pre/postemergence cocklebur; assay type: in vivo, Xanthium strumarium
In short: as §1

corn = assay: Test B pre/postemergence corn; assay type: in vivo, Zea mays
In short: as §1

giant foxtail = assay: Test B pre/postemergence giant foxtail; assay type: in vivo, Setaria faberii
In short: as §1

morningglory = assay: Test B pre/postemergence morningglory; assay type: in vivo, Ipomoea hederacea
In short: as §1

pigweed = assay: Test B pre/postemergence pigweed; assay type: in vivo, Amaranthus retroflexus
In short: as §1

rape = assay: Test B pre/postemergence rape; assay type: in vivo, Brassica napus
In short: as §1

soybean = assay: Test B pre/postemergence soybean; assay type: in vivo, Glycine max
In short: as §1

sugar beet = assay: Test B pre/postemergence sugar beet; assay type: in vivo, Beta vulgaris
In short: as §1

velvetleaf = assay: Test B pre/postemergence velvetleaf; assay type: in vivo, Abutilon theophrasti
In short: as §1

wheat = assay: Test B pre/postemergence wheat; assay type: in vivo, Triticum aestivum
In short: as §1

wild oat = assay: Test B pre/postemergence wild oat; assay type: in vivo, Avena fatua
In short: as §1

rice = assay: Test B flood test rice; assay type: in vivo, Oryza sativa
In short: (§2)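 Each value is a visual injury score relative to controls, with 10 meaning complete control and 0 no effect. Evaluation took place twelve to sixteen days after the 2-leaf-stage plants were treated and kept in the greenhouse.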

smallflower flatsedge = assay: Test B flood test smallflower flatsedge; assay type: in vivo, Cyperus difformis
In short: as §2

[1] = Postemergence, Rate 125 g/ha, scale 0 to 10, 0 is no effect, 10 is complete control
[2] = Preemergence, Rate 62 g/ha, scale of 0 to 10 where 0 is no effect and 10 is complete control
[3] = Preemergence, Rate 250 g/ha, scale of 0 to 10 where 0 is no effect and 10 is complete control
[4] = Preemergence, Rate 500 g/ha, scale of 0 to 10 where 0 is no effect and 10 is complete control
[5] = Rate 62 g/ha, Postemergence, scale 0 to 10 (0 no effect, 10 complete control)
[6] = Rate 250 g/ha, Postemergence, scale of 0 to 10 where 0 is no effect and 10 is complete control
[7] = Rate 500 g/ha, Postemergence, scale 0 to 10, 0 no effect, 10 complete control
[8] = Rate 62 g/ha, headed Pre-emergence (flood test species), scale 0 to 10 (0 no effect, 10 complete control)
[9] = Rate 125 g/ha, Pre-emergence, flood test species, scale 0 to 10 where 0 is no effect and 10 is complete control
[10] = Rate 250 g/ha, Pre-emergence, flood-test species, scale 0 to 10, 0 is no effect, 10 is complete control
[11] = Rate 500 g/ha, Pre-emergence, flood test species, scale 0 to 10 (0 no effect, 10 complete control)

CC(C)N(C(=O)n1oc(=O)n(C2CC3CCC2C3)c1=O)c1ccc(F)cc1F (centres unmarked) [Compound 326]
Plant response rating, Bedstraw (bedstraw; Rate 125 g/ha, scale 0 to 10, 0 is no effect, 10 is complete control): 5 | Plant response rating, Bedstraw (bedstraw; Rate 250 g/ha, scale of 0 to 10 where 0 is no effect and 10 is complete control): 7 | Plant response rating, Blackgrass (blackgrass; [1]): 0 | Blackgrass plant response rating (blackgrass; [2]): 0 | Blackgrass plant response rating (0 to 10 scale) (blackgrass; Preemergence, Rate 125 g/ha): 5 | Blackgrass plant response rating (blackgrass; [3]): 7 | Blackgrass plant response rating (blackgrass; [4]): 8 | Blackgrass plant response rating (blackgrass; [5]): 0 | Plant response rating, Blackgrass (blackgrass; [6]): 0 | Plant response rating, Blackgrass (blackgrass; [7]): 1 | Plant response rating, B. signalgrass (surinam grass; [1]): 0 | B. signalgrass plant response rating (surinam grass; [2]): 0 | B. signalgrass plant response rating (0 to 10 scale, 0 is no effect, 10 is complete control) (surinam grass; Preemergence, Rate 125 g/ha): 0 | B. signalgrass plant response rating (surinam grass; [3]): 3 | B. signalgrass plant response rating (surinam grass; [4]): 7 | B. signalgrass plant response rating (surinam grass; [5]): 0 | Plant response rating, B. signalgrass (surinam grass; [6]): 0 | Plant response rating, B. signalgrass (surinam grass; [7]): 0 | Plant response rating, Cocklebur (cocklebur; [1]): 0 | Cocklebur plant response rating (cocklebur; [2]): 0 | Cocklebur plant response rating (0 to 10 scale) (cocklebur; Preemergence, Rate 125 g/ha): 0 | Cocklebur plant response rating (cocklebur; [3]): 0 | Cocklebur plant response rating (cocklebur; [4]): 0 | Cocklebur plant response rating (cocklebur; [5]): 0 | Plant response rating, Cocklebur (cocklebur; [6]): 0 | Plant response rating, Cocklebur (cocklebur; [7]): 2 | Plant response rating, Corn (corn; [1]): 0 | Corn plant response rating (corn; [2]): 0 | Corn plant response rating (0 to 10 scale) (corn; Preemergence, Rate 125 g/ha): 0 | Corn plant response rating (corn; [3]): 0 | Corn plant response rating (corn; [4]): 2 | Corn plant response rating (corn; [5]): 0 | Plant response rating, Corn (corn; [6]): 0 | Plant response rating, Corn (corn; [7]): 0 | Plant response rating, Giant foxtail (giant foxtail; [1]): 0 | Giant foxtail plant response rating (giant foxtail; [2]): 0 | Giant foxtail plant response rating (0 to 10 scale) (giant foxtail; Preemergence, Rate 125 g/ha): 2 | Giant foxtail plant response rating (giant foxtail; [3]): 8 | Giant foxtail plant response rating (giant foxtail; [4]): 9 | Giant foxtail plant response rating (giant foxtail; [5]): 0 | Plant response rating, Giant foxtail (giant foxtail; [6]): 0 | Plant response rating, Giant foxtail (giant foxtail; [7]): 2 | Plant response rating, Morningglory (morningglory; [1]): 7 | Morningglory plant response rating (morningglory; [2]): 0 | Morningglory plant response rating (0 to 10 scale) (morningglory; Preemergence, Rate 125 g/ha): 0 | Morningglory plant response rating (morningglory; [3]): 0 | Morningglory plant response rating (morningglory; [4]): 0 | Morningglory plant response rating (morningglory; [5]): 5 | Plant response rating, Morningglory (morningglory; [7]): 10 | Plant response rating, Redroot pigweed (pigweed; [1]): 4 | Redroot pigweed plant response rating (pigweed; [2]): 1 | Redroot pigweed plant response rating (0 to 10 scale) (pigweed; Preemergence, Rate 125 g/ha): 3 | Redroot pigweed plant response rating (pigweed; [3]): 6 | Redroot pigweed plant response rating (pigweed; [4]): 7 | Redroot pigweed plant response rating (pigweed; [5]): 3 | Plant response rating, Redroot pigweed (pigweed; [6]): 4 | Plant response rating, Redroot pigweed (pigweed; [7]): 7 | Plant response rating, Rape (rape; [1]): 0 | Rape plant response rating (rape; [2]): 0 | Rape plant response rating (0 to 10 scale) (rape; Preemergence, Rate 125 g/ha): 0 | Rape plant response rating (rape; [3]): 0 | Rape plant response rating (rape; [4]): 1 | Rape plant response rating (rape; [5]): 0 | Plant response rating, Rape (rape; [6]): 1 | Plant response rating, Rape (rape; [7]): 3 | Plant response rating, Soybean (soybean; [1]): 5 | Soybean plant response rating (soybean; [2]): 0 | Soybean plant response rating (0 to 10 scale) (soybean; Preemergence, Rate 125 g/ha): 0 | Soybean plant response rating (soybean; [3]): 0 | Soybean plant response rating (soybean; [4]): 0 | Soybean plant response rating (soybean; [5]): 3 | Plant response rating, Soybean (soybean; [6]): 5 | Plant response rating, Soybean (soybean; [7]): 6 | Plant response rating, Sugarbeets (sugar beet; [1]): 0 | Sugarbeets plant response rating (sugar beet; [2]): 0 | Sugarbeets plant response rating (0 to 10 scale) (sugar beet; Preemergence, Rate 125 g/ha): 0 | Sugarbeets plant response rating (sugar beet; [3]): 0 | Sugarbeets plant response rating (sugar beet; [4]): 2 | Sugarbeets plant response rating (sugar beet; [5]): 0 | Plant response rating, Sugarbeets (sugar beet; [6]): 0 | Plant response rating, Sugarbeets (sugar beet; [7]): 0 | Plant response rating, Velvetleaf (velvetleaf; [1]): 0 | Velvetleaf plant response rating (velvetleaf; [2]): 0 | Velvetleaf plant response rating (0 to 10 scale) (velvetleaf; Preemergence, Rate 125 g/ha): 0 | Velvetleaf plant response rating (velvetleaf; [3]): 0 | Velvetleaf plant response rating (velvetleaf; [4]): 0 | Velvetleaf plant response rating (velvetleaf; [5]): 0 | Plant response rating, Velvetleaf (velvetleaf; [6]): 2 | Plant response rating, Velvetleaf (velvetleaf; [7]): 2 | Plant response rating, Wheat (wheat; [1]): 0 | Wheat plant response rating (wheat; [2]): 0 | Wheat plant response rating (0 to 10 scale) (wheat; Preemergence, Rate 125 g/ha): 0 | Wheat plant response rating (wheat; [3]): 0 | Wheat plant response rating (wheat; [4]): 2 | Wheat plant response rating (wheat; [5]): 0 | Plant response rating, Wheat (wheat; [6]): 0 | Plant response rating, Wheat (wheat; [7]): 0 | Plant response rating, Wild oats (wild oat; [1]): 0 | Wild oats plant response rating (wild oat; [2]): 0 | Wild oats plant response rating (0 to 10 scale) (wild oat; Preemergence, Rate 125 g/ha): 1 | Wild oats plant response rating (wild oat; [3]): 3 | Wild oats plant response rating (wild oat; [4]): 3 | Wild oats plant response rating (wild oat; [5]): 0 | Plant response rating, Wild oats (wild oat; [6]): 0 | Plant response rating, Wild oats (wild oat; [7]): 0 | Rice plant response rating (rice; [8]): 0 | Rice plant response rating (rice; [9]): 0 | Rice plant response rating (rice; [10]): 0 | Rice plant response rating (rice; [11]): 0 | S. Flatsedge plant response rating (smallflower flatsedge; [8]): 0 | S. Flatsedge plant response rating (smallflower flatsedge; [9]): 0 | S. Flatsedge plant response rating (smallflower flatsedge; [10]): 0 | S. Flatsedge plant response rating (smallflower flatsedge; [11]): 0
